Measurements published in patent publication US20220235043A1, “SUBSTITUTED SULFONAMIDE PYRROLOPYRIDINES AS JAK INHIBITORS” (ACLARIS THERAPEUTICS, INC., priority 2019, published 2022).

Experiments:
[1] = test system: IFNγ stimulated STAT1 phosphorylation on Tyr701 (JAK1/2); assay: JAK1/2 cellular target modulation: IFNγ stimulated phospho-STAT1 in human PBMC; type: cell-based; conditions: IFNγ 10 ng/ml, read-out: Infγ-STAT1 IC50
From the text: (§1) Target modulation was based upon the ability of a compound to inhibit JAK isoform specific phosphorylation of selected substrates. IL-2 stimulated STAT5 phosphorylation on Tyr694 was used to assess JAK1/3 compound selectivity. GM-CSF stimulated STAT5 phosphorylation on Tyr694 was used to assess JAK2 compound selectivity. IFNγ stimulated STAT1 phosphorylation on Tyr701 was used to assess JAK1/2 compound selectivity. IL-12 stimulated STAT4 phosphorylation on Tyr693 was used to assess JAK2/TYK2 compound selectivity. For all four assays, human PBMC from frozen stocks were thawed, pelleted, resuspended in complete media (90% RPMI, 10% heat inactivated FBS, 10 mM HEPES, 47 μM 2-ME, pen/strep) and placed in wells of a 96 well V-bottom plate at 200,000 per well in 120 μl complete media. Compounds were added as 15 μl per well of 10× working stock solutions in complete media with 1% DMSO (or medium with 1% DMSO for controls) and placed on a plate shaker in a 37° C. incubator with 5% CO2 for 1 hour with gentle shaking (setting of 3). Stimulation used the addition of soluble cytokines. For the JAK1/3 phospho-STAT5 assay, 15 μl of 10× working stock recombinant human IL-2 was added to a final concentration of 25 ng/ml. For the JAK2 phospho-STAT5 assay, 15 μl of 10× working stock recombinant human GM-CSF was added to a final concentration of 5 ng/ml. For the JAK1/2 phospho-STAT1 assay, 15 μl of 10× working stock of recombinant human IFNγ was added to a final concentration of 10 ng/ml. For the JAK2/TYK2 phospho-STAT4 assay, 15 μl of 10× working stock of recombinant human IL-12 was added to a final concentration of 1.7 ng/ml. Plates were then placed back on the plate shaker in the incubator for an additional 5, 5, 10, and 25 minutes respectively upon which the plates were removed from the incubator, sealed with a plate sealer and the cells pelleted at 400×g for 5 minutes. After pelleting, the media was removed by aspiration and the cells were lysed in assay specific cell lysis buffer. The levels of phospho-STAT5 were determined using a Phospho (Tyr694)STAT5a,b Whole Cell Lysate kit from Meso Scale Discovery. Levels of phospho-STAT1 were determined using a CST-PathScan Phospho-STAT1 (Tyr701) Sandwich ELISA kit. Levels of phospho-STAT4 were determined using a Phospho-STAT4 (Tyr693) Whole Cell Lysate kit from Meso Scale Discovery.

[2] = test system: IL-2 stimulated STAT5 phosphorylation on Tyr694 (JAK1/3); assay: JAK1/3 cellular target modulation: IL-2 stimulated phospho-STAT5 in human PBMC; type: cell-based; conditions: IL-2 25 ng/ml, read-out: IL2-STAT5 IC50
From the text: as §1

JAK1 = target: T1, JAK1 (Homo sapiens, UniProt P23458); assay: JAK1 enzyme activity assay (Thermo Fisher Selectscreen, Z-lyte); type: biochemical; conditions: read-out: JAK1 Inhibition IC50
T1 construct: purchased Thermo Fisher Scientific (SelectScreen service)
Experimental: (§2) The inhibitory potency of candidate compounds of JAK1, JAK2, and Tyk-2 was done at Thermo Fisher Scientific in their Selectscreen using a Z-lyte assay. Following are the assay details for each enzyme.
JAK1: The 2×JAK-enzyme/Tyr 06 mixture is prepared in 50 mM HEPES pH 6.5, 0.01% BRIJ-35, 10 mM MgCl2, 1 mM EGTA, 0.02% NaN3. The final 10 μL of the Kinase Reaction consists of 21.2-91.5 ng JAK1 and 2 μM Tyr 06 in 50 mM HEPES pH 7.0, 0.01% BRIJ-35, 10 mM MgCl2, 1 mM EGTA, 0.01% NaN3. After the one hour Kinase Reaction incubation, 5 μL of a 1:128 dilution of Development Reagent is added.
(§3) Data reduction for JAK1, JAK2 and TYK2 is done the same, independent of the enzyme run. In summary, background signal is defined in the absence of enzyme and uninhibited signal is defined in the presence of vehicle (2% DMSO) alone. Compounds were evaluated in an 11 point dose-response ranging from […] to 0.34 nM. IC50 values of compounds are determined using a 4 parameter logistical fit of emission ratio as a function of the concentration of compound.

JAK3 (a.a. 781-1124) = target: T2, JAK3 (a.a. 781-1124) (Homo sapiens, UniProt P52333); assay: JAK3 enzyme activity assay (SRCtide phosphorylation, Caliper); type: biochemical; conditions: 1 uM ATP; read-out: JAK3 Inhibition IC50
T2 construct: JAK3 (a.a. 781-1124, ThermoFisher); purchased ThermoFisher
Experimental: The activity of JAK3 (a.a. 781-1124, ThermoFisher) was quantified by measuring the phosphorylation of SRCtide (FAM-GEEPLYWSFPAKKK-NH2). Kinase reactions were run in a 384-well Greiner plate with 2% final DMSO concentration under the buffer conditions of 20 mM HEPES, pH 7.5, 10 mM MgCl2, 0.01% BSA, and 0.0005% Tween-20. The kinase reaction components were 2.5 nM JAK3, 1 μM SRCtide peptide and 1 uM ATP. Examples were tested in dose-response starting at […] (11 concentrations, 3-fold serial dilution, duplicate reactions). The reactions were incubated at room temperature for 40 minutes, then stopped by adding a 1:1 volume of 30 mM EDTA in 20 mM HEPES, pH 7.5 (15 mM EDTA final). After the reaction was stopped, the phosphorylated and unphosphorylated peptides were separated and quantified using a Caliper LC3000/EZ-Reader system and HTS Well Analyzer Software (Caliper, A PerkinElmer Company, Hopkinton, Mass.). GraFit (Erithacus Software Ltd., Horley, U.K.) was used to calculate inhibitor potency by fitting dose-response data to the 4-parameter logistical IC50 equation.

Tyk-2 = target: T3, Tyk-2 (Homo sapiens, UniProt P29597); assay: Tyk-2 enzyme activity assay (Thermo Fisher Selectscreen, Z-lyte); type: biochemical; conditions: read-out: Tyk-2 Inhibition IC50
T3 construct: purchased Thermo Fisher Scientific (SelectScreen service)
Experimental: as §2
TYK2: The 2×TYK2/Tyr 03 mixture is prepared in 50 mM HEPES pH 6.5, 0.01% BRIJ-35, 10 mM MgCl2, 1 mM EGTA, 0.02% NaN3. The final 10 μL Kinase Reaction consists of 3.75-15 ng TYK2 and 2 μM Tyr 03 in 50 mM HEPES pH 7.0, 0.01% BRIJ-35, 10 mM MgCl2, 1 mM EGTA, 0.01% NaN3. After the one hour KinaseReaction incubation, 5 μL of a 1:4096 dilution of Development Reagent A is added.
as §3

JAK2 = target: T4, JAK2 (Homo sapiens, UniProt O60674); assay: JAK2 enzyme activity assay (Thermo Fisher Selectscreen, Z-lyte); type: biochemical; conditions: read-out: JAK2 Inhibition IC50
T4 construct: purchased Thermo Fisher Scientific (SelectScreen service)
Experimental: as §2
JAK2: The 2×JAK2/Tyr 06 mixture is prepared in 50 mM HEPES pH 7.5, 0.01% BRIJ-35, 10 mM MgCl2, 1 mM EGTA. The final 10 μL Kinase Reaction consists of 0.12-0.5 ng JAK2 and 2 μM Tyr 06 in 50 mM HEPES pH 7.5, 0.01% BRIJ-35, 10 mM MgCl2, 1 mM EGTA. After the one hour Kinase Reaction incubation, 5 μL of a 1:128 dilution of Development Reagent A is added.
as §3

[3] = test system: IL-12 stimulated STAT4 phosphorylation on Tyr693 (JAK2/TYK2); assay: JAK2/TYK2 cellular target modulation: IL-12 stimulated phospho-STAT4 in human PBMC; type: cell-based; conditions: IL-12 1.7 ng/ml, read-out: IL12-STAT4 IC50
From the text: as §1

T1 sequence (P23458 whole entry): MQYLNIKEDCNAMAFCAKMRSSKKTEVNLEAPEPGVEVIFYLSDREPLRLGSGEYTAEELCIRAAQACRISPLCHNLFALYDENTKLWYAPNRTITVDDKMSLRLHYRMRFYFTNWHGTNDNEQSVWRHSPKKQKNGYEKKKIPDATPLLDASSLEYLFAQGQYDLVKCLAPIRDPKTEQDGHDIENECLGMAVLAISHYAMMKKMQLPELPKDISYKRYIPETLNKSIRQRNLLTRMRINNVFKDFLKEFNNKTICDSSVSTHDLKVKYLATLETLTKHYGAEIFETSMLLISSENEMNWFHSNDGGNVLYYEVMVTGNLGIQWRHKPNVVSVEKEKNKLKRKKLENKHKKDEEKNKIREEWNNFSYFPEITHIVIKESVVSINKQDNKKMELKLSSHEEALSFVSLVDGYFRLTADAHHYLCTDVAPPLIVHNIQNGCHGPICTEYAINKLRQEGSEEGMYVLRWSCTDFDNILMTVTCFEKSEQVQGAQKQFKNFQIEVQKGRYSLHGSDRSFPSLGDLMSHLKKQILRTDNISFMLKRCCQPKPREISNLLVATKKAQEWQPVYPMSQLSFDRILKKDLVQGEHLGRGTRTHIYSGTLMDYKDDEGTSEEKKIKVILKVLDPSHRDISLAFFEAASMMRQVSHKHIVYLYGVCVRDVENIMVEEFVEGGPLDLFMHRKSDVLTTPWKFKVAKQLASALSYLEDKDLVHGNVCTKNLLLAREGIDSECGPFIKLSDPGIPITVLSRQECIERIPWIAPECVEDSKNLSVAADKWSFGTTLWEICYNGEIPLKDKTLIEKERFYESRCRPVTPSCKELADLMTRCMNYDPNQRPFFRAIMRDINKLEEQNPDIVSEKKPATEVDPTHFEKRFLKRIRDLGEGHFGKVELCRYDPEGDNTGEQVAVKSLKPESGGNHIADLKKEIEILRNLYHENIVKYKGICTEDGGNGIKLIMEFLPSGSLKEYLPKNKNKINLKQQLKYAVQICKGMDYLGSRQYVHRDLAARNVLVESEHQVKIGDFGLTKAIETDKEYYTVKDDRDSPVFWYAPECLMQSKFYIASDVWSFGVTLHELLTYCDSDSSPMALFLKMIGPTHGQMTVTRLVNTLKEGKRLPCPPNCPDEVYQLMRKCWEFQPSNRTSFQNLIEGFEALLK
T3 sequence (P29597 whole entry): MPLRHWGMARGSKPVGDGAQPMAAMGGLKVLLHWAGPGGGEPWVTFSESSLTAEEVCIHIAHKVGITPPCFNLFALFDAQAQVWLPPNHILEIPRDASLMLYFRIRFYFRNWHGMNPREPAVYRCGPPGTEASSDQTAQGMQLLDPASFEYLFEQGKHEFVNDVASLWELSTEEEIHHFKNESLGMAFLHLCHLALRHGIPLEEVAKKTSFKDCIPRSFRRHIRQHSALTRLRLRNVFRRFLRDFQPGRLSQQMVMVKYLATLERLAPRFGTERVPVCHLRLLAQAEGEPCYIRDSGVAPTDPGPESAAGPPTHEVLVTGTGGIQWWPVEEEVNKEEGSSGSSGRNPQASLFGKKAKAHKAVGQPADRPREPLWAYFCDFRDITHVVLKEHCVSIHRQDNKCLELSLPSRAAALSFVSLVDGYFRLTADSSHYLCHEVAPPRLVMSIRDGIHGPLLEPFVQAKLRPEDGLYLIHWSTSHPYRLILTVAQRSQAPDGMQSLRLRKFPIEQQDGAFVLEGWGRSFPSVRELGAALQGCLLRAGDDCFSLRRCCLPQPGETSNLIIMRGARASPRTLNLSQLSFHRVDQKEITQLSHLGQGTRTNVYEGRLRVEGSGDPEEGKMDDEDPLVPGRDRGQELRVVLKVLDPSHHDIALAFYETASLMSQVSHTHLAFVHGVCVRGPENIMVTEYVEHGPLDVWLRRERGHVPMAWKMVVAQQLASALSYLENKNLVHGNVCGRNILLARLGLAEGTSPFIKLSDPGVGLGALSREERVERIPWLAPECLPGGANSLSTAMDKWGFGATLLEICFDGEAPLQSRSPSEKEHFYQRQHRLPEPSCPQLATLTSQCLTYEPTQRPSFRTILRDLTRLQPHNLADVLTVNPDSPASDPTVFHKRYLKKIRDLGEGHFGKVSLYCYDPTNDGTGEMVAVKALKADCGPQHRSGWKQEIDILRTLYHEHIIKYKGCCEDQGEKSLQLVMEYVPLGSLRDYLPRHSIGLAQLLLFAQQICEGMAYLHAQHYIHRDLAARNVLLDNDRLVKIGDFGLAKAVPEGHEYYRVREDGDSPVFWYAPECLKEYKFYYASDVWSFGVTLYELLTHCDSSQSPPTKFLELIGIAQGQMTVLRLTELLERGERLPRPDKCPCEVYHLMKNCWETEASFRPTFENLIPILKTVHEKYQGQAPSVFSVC
T4 sequence (O60674 whole entry): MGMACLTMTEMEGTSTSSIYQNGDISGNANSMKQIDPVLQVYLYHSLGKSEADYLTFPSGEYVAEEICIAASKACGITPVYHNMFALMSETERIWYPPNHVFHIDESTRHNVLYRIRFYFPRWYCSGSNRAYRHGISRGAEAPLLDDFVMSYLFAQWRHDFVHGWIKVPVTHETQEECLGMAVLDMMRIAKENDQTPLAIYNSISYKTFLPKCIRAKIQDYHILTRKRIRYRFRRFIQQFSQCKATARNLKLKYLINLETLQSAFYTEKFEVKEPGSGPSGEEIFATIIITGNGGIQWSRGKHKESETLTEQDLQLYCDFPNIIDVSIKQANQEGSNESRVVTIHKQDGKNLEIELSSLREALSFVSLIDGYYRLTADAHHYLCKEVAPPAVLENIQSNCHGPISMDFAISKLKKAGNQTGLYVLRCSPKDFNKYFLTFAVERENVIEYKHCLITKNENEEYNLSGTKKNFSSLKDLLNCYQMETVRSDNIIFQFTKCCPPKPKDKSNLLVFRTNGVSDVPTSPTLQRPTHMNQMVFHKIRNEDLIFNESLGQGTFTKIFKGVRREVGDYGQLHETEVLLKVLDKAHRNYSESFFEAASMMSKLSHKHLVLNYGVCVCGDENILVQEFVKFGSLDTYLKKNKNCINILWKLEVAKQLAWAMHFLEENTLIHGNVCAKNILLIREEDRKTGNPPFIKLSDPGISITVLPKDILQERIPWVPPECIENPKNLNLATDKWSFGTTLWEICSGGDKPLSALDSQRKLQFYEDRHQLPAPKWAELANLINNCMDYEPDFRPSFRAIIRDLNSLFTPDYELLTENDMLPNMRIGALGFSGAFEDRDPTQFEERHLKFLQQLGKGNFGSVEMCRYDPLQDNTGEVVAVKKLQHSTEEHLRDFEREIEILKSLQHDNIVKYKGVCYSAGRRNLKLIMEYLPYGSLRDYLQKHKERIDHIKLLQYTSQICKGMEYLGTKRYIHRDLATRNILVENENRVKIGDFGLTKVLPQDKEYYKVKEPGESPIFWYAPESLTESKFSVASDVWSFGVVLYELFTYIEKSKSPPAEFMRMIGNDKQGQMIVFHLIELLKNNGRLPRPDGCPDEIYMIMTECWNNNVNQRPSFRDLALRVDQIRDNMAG
T2 sequence (P52333 781-1124): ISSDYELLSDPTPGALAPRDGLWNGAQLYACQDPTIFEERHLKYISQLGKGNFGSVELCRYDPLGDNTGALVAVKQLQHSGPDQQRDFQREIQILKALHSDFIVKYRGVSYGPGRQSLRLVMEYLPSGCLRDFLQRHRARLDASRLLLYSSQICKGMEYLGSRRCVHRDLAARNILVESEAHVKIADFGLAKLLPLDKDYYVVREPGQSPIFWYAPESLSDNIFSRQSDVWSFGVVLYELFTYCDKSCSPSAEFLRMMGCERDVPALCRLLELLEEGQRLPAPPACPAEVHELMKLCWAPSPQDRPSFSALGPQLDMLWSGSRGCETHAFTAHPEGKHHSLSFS

IC50 [1] [nM] | IC50 [2] [nM] | IC50 (JAK1) [nM] | IC50 (JAK3 (a.a. 781-1124)) [nM] | IC50 (Tyk-2) [nM] | IC50 (JAK2) [nM] | IC50 [3] [nM] | SMILES
100 to 1000 | ≤ 100 | ≤ 10 | ≤ 10 | ≤ 10 | ≤ 10 | > 1000 | N#Cc1cccc(S(=O)(=O)N[C@H]2C[C@@H](Nc3c(-c4ccncn4)cnc4[nH]ccc34)C2)c1 [Example 64, 3-cyano-N-((1s,3s)-3-((5-(pyrimidin-4-yl)-1H-pyrrolo[2,3-b]pyridin-4-yl)amino)cyclobutyl)benzenesulfonamide]
> 1000 | 100 to 1000 | ≤ 10 | 100 to 1000 | 10 to 100 | 10 to 100 | > 1000 | CNC(=O)c1ccnc(-c2cnc3[nH]ccc3c2N[C@H]2C[C@@H](NS(=O)(=O)c3cccc(C#N)c3)C2)c1 [Example 66, 2-(4-(((1s,3s)-3-((3-cyanophenyl)sulfonamido)cyclobutyl)amino)-1H-pyrrolo[2,3-b]pyridin-5-yl)-N-methylisonicotinamide]
100 to 1000 | 100 to 1000 | ≤ 10 | 10 to 100 | 100 to 1000 | 10 to 100 | > 1000 | CCCS(=O)(=O)N[C@H]1C[C@@H](Nc2c(-c3nc(C(=O)NC)co3)cnc3[nH]ccc23)C1 [Example 71, N-methyl-2-(4-(((1s,3s)-3-(propylsulfonamido)cyclobutyl)amino)-1H-pyrrolo[2,3-b]pyridin-5-yl)oxazole-4-carboxamide]
> 1000 | 100 to 1000 | 10 to 100 | 10 to 100 | 100 to 1000 | 10 to 100 | > 1000 | CCCS(=O)(=O)N[C@H]1C[C@@H](Nc2c(-c3nc(C(=O)NC)cs3)cnc3[nH]ccc23)C1 [Example 72, N-methyl-2-(4-(((1s,3s)-3-(propylsulfonamido)cyclobutyl)amino)-1H-pyrrolo[2,3-b]pyridin-5-yl)thiazole-4-carboxamide]
100 to 1000 | 100 to 1000 | ≤ 10 | ≤ 10 | 10 to 100 | ≤ 10 | 100 to 1000 | Cc1csc(-c2cnc3[nH]ccc3c2N[C@H]2C[C@@H](NS(=O)(=O)c3cccc(C#N)c3)C2)n1 [Example 73, 3-cyano-N-((1s,3s)-3-((5-(4-methylthiazol-2-yl)-1H-pyrrolo[2,3-b]pyridin-4-yl)amino)cyclobutyl)benzenesulfonamide]
100 to 1000 | 100 to 1000 | 10 to 100 | 10 to 100 | 10 to 100 | 10 to 100 | > 1000 | CCCS(=O)(=O)N[C@H]1C[C@@H](Nc2c(-c3nnc(C)s3)cnc3[nH]ccc23)C1 [Example 76, N-((1s,3s)-3-((5-(5-methyl-1,3,4-thiadiazol-2-yl)-1H-pyrrolo[2,3-b]pyridin-4-yl)amino)cyclobutyl)propane-1-sulfonamide]

Continued, compound first:

SMILES | IC50 [1] [nM] | IC50 [2] [nM] | IC50 (JAK1) [nM] | IC50 (JAK3 (a.a. 781-1124)) [nM] | IC50 (Tyk-2) [nM] | IC50 (JAK2) [nM] | IC50 [3] [nM]
CNC(=O)c1csc(-c2cnc3[nH]ccc3c2N[C@H]2C[C@@H](NS(=O)(=O)c3cccc(C#N)c3)C2)n1 [Example 21, 2-(4-(((1s,3s)-3-((3-cyanophenyl)sulfonamido)cyclobutyl)amino)-1H-pyrrolo[2,3-b]pyridin-5-yl)-N-methylthiazole-4-carboxamide] | 100 to 1000 | 100 to 1000 | ≤ 10 | 10 to 100 | 10 to 100 | ≤ 10 | > 1000
N#Cc1ccnc(S(=O)(=O)N[C@H]2C[C@H](Nc3c(-c4ccncn4)cnc4[nH]ccc34)C2)c1 [Example 63, 4-cyano-N-((1r,3r)-3-((5-(pyrimidin-4-yl)-1H-pyrrolo[2,3-b]pyridin-4-yl)amino)cyclobutyl)pyridine-2-sulfonamide] | 100 to 1000 | 100 to 1000 | ≤ 10 | 10 to 100 | 10 to 100 | ≤ 10 | > 1000
N#Cc1cccc(S(=O)(=O)N[C@H]2C[C@@H](Nc3c(-c4nccs4)cnc4[nH]ccc34)C2)c1 [Example 69, 3-cyano-N-((1s,3s)-3-((5-(thiazol-2-yl)-1H-pyrrolo[2,3-b]pyridin-4-yl)amino)cyclobutyl)benzenesulfonamide] | 100 to 1000 | ≤ 100 | ≤ 10 | ≤ 10 | ≤ 10 | ≤ 10 | 100 to 1000
CCCS(=O)(=O)N[C@H]1C[C@@H](Nc2c(-c3nccs3)cnc3[nH]ccc23)C1 [Example 70, N-((1s,3s)-3-((5-(thiazol-2-yl)-1H-pyrrolo[2,3-b]pyridin-4-yl)amino)cyclobutyl)propane-1-sulfonamide] | 100 to 1000 | ≤ 100 | ≤ 10 | 10 to 100 | 10 to 100 | 10 to 100 | > 1000
Cc1cnc(-c2cnc3[nH]ccc3c2N[C@H]2C[C@@H](NS(=O)(=O)c3cccc(C#N)c3)C2)s1 [Example 74, 3-cyano-N-((1s,3s)-3-((5-(5-methylthiazol-2-yl)-1H-pyrrolo[2,3-b]pyridin-4-yl)amino)cyclobutyl)benzenesulfonamide] | 100 to 1000 | ≤ 100 | ≤ 10 | ≤ 10 | 10 to 100 | 10 to 100 | 100 to 1000
